Assay results as given in ChEMBL document CHEMBL3217457, “Carbazolepyrrolo[2,1-c][1,4]benzodiazepine conjugates: design, synthesis, and biological evaluation” (Medchemcomm, 2011).

How the values were obtained:
[1] = tested on: SiHa; experiment: Growth inhibition of human SiHa cells; assay type: functional
[2] = tested on: Calf thymus DNA; experiment: Binding affinity to calf thymus DNA assessed as change in melting temperature at compound to DNA ratio of 1:5 after 18 hrs by thermal denaturation analysis; assay type: nucleic-acid assay; conditions: Bos taurus
[3] = tested on: A549; experiment: Growth inhibition of human A549 cells; assay type: functional
[4] = tested on: KB; experiment: Growth inhibition of human KB cells; assay type: functional
[5] = tested on: COLO 205; experiment: Growth inhibition of human COLO205 cells; assay type: functional
[6] = tested on: A2780; experiment: Growth inhibition of human A2780 cells; assay type: functional
[7] = Growth inhibition of human Gurav cells; assay type: functional
[8] = tested on: MCF7; experiment: Growth inhibition of human MCF7 cells; assay type: functional
[9] = tested on: ZR-75-1; experiment: Growth inhibition of human ZR-75-1 cells; assay type: functional
[10] = tested on: PC-3; experiment: Growth inhibition of human PC3 cells; assay type: functional
[11] = tested on: HOP-62; experiment: Growth inhibition of human HOP62 cells; assay type: functional

Compound COc1cc2c(cc1OCCCCN1CCN(CCCn3c4ccccc4c4ccccc43)CC1)N=C[C@@H]1CCCN1C2=O has a GI50 [1] of 160 nM, a ΔTm [2] of 7.9 °C and a GI50 [3] of 140 nM. It also gave a GI50 [4] of 160 nM, a GI50 [5] of 170 nM and a GI50 [6] of 140 nM. It also gave a GI50 [7] of 150 nM, a GI50 [8] of 150 nM and a GI50 [9] of 160 nM. It also gave a GI50 [10] of 140 nM and a GI50 [11] of 110 nM.

Compound COc1cc2c(cc1OCCCCN1CCN(CCCCn3c4ccccc4c4ccccc43)CC1)N=C[C@@H]1CCCN1C2=O has a GI50 [1] of 150 nM, a ΔTm [2] of 8.4 °C and a GI50 [3] of 130 nM. It also gave a GI50 [4] of 150 nM, a GI50 [5] of 160 nM and a GI50 [6] of 160 nM. It also gave a GI50 [7] of 170 nM, a GI50 [8] of 120 nM and a GI50 [9] of 150 nM. The GI50 [10] was 100 nM and the GI50 [11] was 80 nM.

With COc1cc2c(cc1OCCCCn1c3ccccc3c3ccccc31)N=C[C@@H]1CCCN1C2=O the GI50 [1] was 1700 nM, the ΔTm [2] was 3.5 °C and the GI50 [3] was 1920 nM. It also gave a GI50 [4] of 1870 nM, a GI50 [5] of 1700 nM and a GI50 [6] of 1570 nM. The GI50 [7] was 1600 nM, the GI50 [8] was 2210 nM and the GI50 [9] was 1810 nM. The GI50 [11] was 1930 nM.

For COc1cccc2c1C(=O)c1c(O)c3c(c(O)c1C2=O)C[C@@](O)(C(=O)CO)C[C@@H]3O[C@H]1C[C@H](N)[C@H](O)[C@H](C)O1 [DOXORUBICIN], the GI50 [1] was 170 nM, the GI50 [4] was 170 nM and the GI50 [5] was 140 nM. The GI50 [6] was 160 nM, the GI50 [7] was 160 nM and the GI50 [8] was 170 nM. For the same compound, the GI50 [10] was 1830 nM and the GI50 [11] was 140 nM.

Compound COc1ccc(-c2ccc3c(c2)c2cc(-c4ccc(OC)cc4)ccc2n3CCCN2CCN(CCCOc3cc4c(cc3OC)C(=O)N3CCC[C@H]3C=N4)CC2)cc1 has a GI50 [1] of 120 nM, a ΔTm [2] of 7.2 °C and a GI50 [3] of 130 nM. For the same compound, the GI50 [4] was 110 nM, the GI50 [5] was 80 nM and the GI50 [6] was 10 nM. The GI50 [7] was 120 nM, the GI50 [8] was 40 nM and the GI50 [9] was 130 nM. It also gave a GI50 [10] of 120 nM and a GI50 [11] of 100 nM.

For COc1ccc(-c2ccc3c(c2)c2cc(-c4ccc(OC)cc4)ccc2n3CCCOc2cc3c(cc2OC)C(=O)N2CCC[C@H]2C=N3)cc1, the GI50 [1] was 170 nM, the ΔTm [2] was 4.8 °C and the GI50 [3] was 180 nM. It also gave a GI50 [4] of 180 nM, a GI50 [5] of 170 nM and a GI50 [6] of 150 nM. The GI50 [8] was 130 nM, the GI50 [10] was 160 nM and the GI50 [11] was 110 nM.

COc1cc2c(cc1OCCCN1CCN(CCCCn3c4ccccc4c4ccccc43)CC1)N=C[C@@H]1CCCN1C2=O showed a GI50 [1] of 130 nM, a ΔTm [2] of 8.5 °C and a GI50 [3] of 120 nM. For the same compound, the GI50 [4] was 140 nM, the GI50 [5] was 140 nM and the GI50 [6] was 110 nM. It also gave a GI50 [7] of 130 nM, a GI50 [8] of 150 nM and a GI50 [9] of 150 nM. It also gave a GI50 [10] of 110 nM and a GI50 [11] of 100 nM.

COc1ccc(-c2ccc3c(c2)c2cc(-c4ccc(OC)cc4)ccc2n3CCCCCOc2cc3c(cc2OC)C(=O)N2CCC[C@H]2C=N3)cc1 gave a GI50 [1] of 170 nM, a ΔTm [2] of 5.9 °C and a GI50 [3] of 160 nM. The GI50 [4] was 170 nM, the GI50 [5] was 180 nM and the GI50 [6] was 140 nM. The GI50 [8] was 140 nM, the GI50 [10] was 150 nM and the GI50 [11] was 120 nM.

For COc1cc2c(cc1OCCCn1c3ccccc3c3ccccc31)N=C[C@@H]1CCCN1C2=O, the GI50 [1] was 1700 nM, the ΔTm [2] was 4 °C and the GI50 [3] was 1840 nM. It also gave a GI50 [4] of 1870 nM, a GI50 [5] of 1680 nM and a GI50 [6] of 1210 nM. It also gave a GI50 [7] of 1600 nM, a GI50 [8] of 1850 nM and a GI50 [9] of 1890 nM. For the same compound, the GI50 [11] was 1930 nM.

Compound COc1cc2c(cc1OCCCCCCn1c3ccccc3c3ccccc31)N=C[C@@H]1CCCN1C2=O has a GI50 [1] of 1580 nM, a ΔTm [2] of 4.7 °C and a GI50 [3] of 1500 nM. It also gave a GI50 [4] of 1950 nM, a GI50 [5] of 1620 nM and a GI50 [6] of 1700 nM. It also gave a GI50 [7] of 1710 nM, a GI50 [8] of 1650 nM and a GI50 [9] of 2140 nM. The GI50 [11] was 1580 nM.
